System: Pseudoperonospora cubensis (PSPECU)
Conditions: in vivo

Compound	Reduction in percent disease, Formul. I	Reduction in percent disease, Formul. II	Reduction in percent disease PSPECU	effect of Formulation I on the effectiveness of fungicides, PSPECU
Cc1c(Br)c2ccc(F)cc2n1S(=O)(=O)c1ncn(S(=O)(=O)N(C)C)n1 [Amisulbrom]	x (key: x: 0-20% reduction in percent disease; xx: 21-35% reduction in percent disease; xxx: 36-50% reduction in percent disease; xxxx: >50% reduction in percent disease)	x (key: x: 0-20% reduction in percent disease; xx: 21-35% reduction in percent disease; xxx: 36-50% reduction in percent disease; xxxx: >50% reduction in percent disease)		
condensation product of urea and 3,3- dimethylbutyraldehyde [Compound R]			x (key: x: 0-20% reduction in percent disease; xx: 21-35% reduction in percent disease; xxx: 36-50% reduction in percent disease; xxxx: >50% reduction in percent disease)	
CO/C=C(/C(=O)OC)c1ccccc1Oc1cc(Oc2ccccc2C#N)ncn1 [Azoxystrobin]			x (key: x: 0-20% reduction in percent disease; xx: 21-35% reduction in percent disease; xxx: 36-50% reduction in percent disease; xxxx: >50% reduction in percent disease)	x (key: x: 0-20% reduction in percent disease; xx: 21-35% reduction in percent disease; xxx: 36-50% reduction in percent disease; xxxx: >50% reduction in percent disease)
CCC(C)/C=N/NC(=O)c1cccc(C(=O)N/N=C/C(C)CC)c1 (stereo not shown) [Compound P]			x (key: x: 0-20% reduction in percent disease; xx: 21-35% reduction in percent disease; xxx: 36-50% reduction in percent disease; xxxx: >50% reduction in percent disease)	
CCCCCCCCCc1c(COC)nc2ncnn2c1N [Compound T]	x (key: x: 0-20% reduction in percent disease; xx: 21-35% reduction in percent disease; xxx: 36-50% reduction in percent disease; xxxx: >50% reduction in percent disease)	x (key: x: 0-20% reduction in percent disease; xx: 21-35% reduction in percent disease; xxx: 36-50% reduction in percent disease; xxxx: >50% reduction in percent disease)		
[Cl-].[Cu+2].[Cu+2].[OH-].[OH-].[OH-] [Copper oxychloride]				x (key: x: 0-20% reduction in percent disease; xx: 21-35% reduction in percent disease; xxx: 36-50% reduction in percent disease; xxxx: >50% reduction in percent disease)
CO/C=C(/C(=O)OC)c1ccccc1COc1cccc(C(F)(F)F)n1 [Picoxystrobin]		x (key: x: 0-20% reduction in percent disease; xx: 21-35% reduction in percent disease; xxx: 36-50% reduction in percent disease; xxxx: >50% reduction in percent disease)		
COCC(=O)N(c1c(C)cccc1C)[C@H](C)C(=O)OC [Mefenoxam]		x (key: x: 0-20% reduction in percent disease; xx: 21-35% reduction in percent disease; xxx: 36-50% reduction in percent disease; xxxx: >50% reduction in percent disease)		
condensation product of urea and 2- methylbutyraldehyde [Compound Q]			x (key: x: 0-20% reduction in percent disease; xx: 21-35% reduction in percent disease; xxx: 36-50% reduction in percent disease; xxxx: >50% reduction in percent disease)	
Cc1ccc(C(C)NC(=O)[C@@H](NC(=O)OC(C)C)C(C)C)cc1 (stereo partly shown) [Iprovalicarb]			x (key: x: 0-20% reduction in percent disease; xx: 21-35% reduction in percent disease; xxx: 36-50% reduction in percent disease; xxxx: >50% reduction in percent disease)	
CNC(=O)/C(=N/OC)c1ccccc1COc1cc(C)ccc1C [Dimoxystrobin]			x (key: x: 0-20% reduction in percent disease; xx: 21-35% reduction in percent disease; xxx: 36-50% reduction in percent disease; xxxx: >50% reduction in percent disease)	
CCNC(=O)NC(=O)/C(C#N)=N/OC [Cymoxanil]			x (key: x: 0-20% reduction in percent disease; xx: 21-35% reduction in percent disease; xxx: 36-50% reduction in percent disease; xxxx: >50% reduction in percent disease)	
CCNc1nc(CC)c(C(=O)NC(C#N)c2cccs2)s1 (stereo not shown) [Ethaboxam, reference compound]		x (key: x: 0-20% reduction in percent disease; xx: 21-35% reduction in percent disease; xxx: 36-50% reduction in percent disease; xxxx: >50% reduction in percent disease)		
O=C(NCc1ncc(C(F)(F)F)cc1Cl)c1c(Cl)cccc1Cl [Fluopicolide]				x (key: x: 0-20% reduction in percent disease; xx: 21-35% reduction in percent disease; xxx: 36-50% reduction in percent disease; xxxx: >50% reduction in percent disease)
C[C@@]1(c2ccc(Oc3ccccc3)cc2)OC(=O)N(Nc2ccccc2)C1=O (racemic) [Famoxadone]			x (key: x: 0-20% reduction in percent disease; xx: 21-35% reduction in percent disease; xxx: 36-50% reduction in percent disease; xxxx: >50% reduction in percent disease)	
CCCOC(=O)NCCCN(C)C [Propamocarb]			x (key: x: 0-20% reduction in percent disease; xx: 21-35% reduction in percent disease; xxx: 36-50% reduction in percent disease; xxxx: >50% reduction in percent disease)	
COCC(=O)N(c1c(C)cccc1C)C(C)C(=O)OC (stereo not shown) [Metalaxyl]				x (key: x: 0-20% reduction in percent disease; xx: 21-35% reduction in percent disease; xxx: 36-50% reduction in percent disease; xxxx: >50% reduction in percent disease)

System: Plasmopara viticola (PLASVI)
Format: in vivo
Conditions: PLASVI; fungicide with Formulation I at 100 ppm; Table 21

Compound	Reduction in percent disease, Formul. I
Cc1c(Br)c2ccc(F)cc2n1S(=O)(=O)c1ncn(S(=O)(=O)N(C)C)n1 [Amisulbrom]	xxx (36-50% reduction in percent disease)
CCCCCCCCCc1c(COC)nc2ncnn2c1N [Compound T]	x (0-20% reduction in percent disease)
CCNc1nc(CC)c(C(=O)NC(C#N)c2cccs2)s1 (stereo not shown) [Ethaboxam, reference compound]	x (0-20% reduction in percent disease)

Same assay, conditions: PLASVI; fungicide with Formulation II at 100 ppm of attractant derivative; Table 22

Compound	Reduction in percent disease, Formul. II
COCC(=O)N(c1c(C)cccc1C)[C@H](C)C(=O)OC [Mefenoxam]	xx (21-35% reduction in percent disease)
O=C(NCc1ncc(C(F)(F)F)cc1Cl)c1c(Cl)cccc1Cl [Fluopicolide]	x (0-20% reduction in percent disease)

Same assay, conditions: PLASVI; fungicide with Formulation II at 100 ppm; Table 21

Compound	Reduction in percent disease, Formul. II
Cc1c(Br)c2ccc(F)cc2n1S(=O)(=O)c1ncn(S(=O)(=O)N(C)C)n1 [Amisulbrom]	xx (21-35% reduction in percent disease)
CCCCCCCCCc1c(COC)nc2ncnn2c1N [Compound T]	x (0-20% reduction in percent disease)
CCNc1nc(CC)c(C(=O)NC(C#N)c2cccs2)s1 (stereo not shown) [Ethaboxam, reference compound]	x (0-20% reduction in percent disease)

Same assay, conditions: aldehyde derivative 500 ppm with mancozeb; Table 16

Compound	Reduction in percent disease PLASVI
condensation product of urea and 3,3- dimethylbutyraldehyde [Compound R]	x (0-20% reduction in percent disease)
CCC(C)/C=N/NC(=O)c1cccc(C(=O)N/N=C/C(C)CC)c1 (stereo not shown) [Compound P]	x (0-20% reduction in percent disease)
condensation product of urea and 2- methylbutyraldehyde [Compound Q]	x (0-20% reduction in percent disease)

Same assay, conditions: fungicide with Formulation I at 100 ppm; Table 18

Compound	Reduction in percent disease PLASVI
CO/C=C(/C(=O)OC)c1ccccc1Oc1cc(Oc2ccccc2C#N)ncn1 [Azoxystrobin]	x (0-20% reduction in percent disease)
CO/C=C(/C(=O)OC)c1ccccc1COc1cccc(C(F)(F)F)n1 [Picoxystrobin]	xxx (36-50% reduction in percent disease)
CCNC(=O)NC(=O)/C(C#N)=N/OC [Cymoxanil]	x (0-20% reduction in percent disease)
CCCOC(=O)NCCCN(C)C [Propamocarb]	x (0-20% reduction in percent disease)

Same assay, conditions: fungicide with Formulation I at 100 ppm; Table 19

Compound	Reduction in percent disease PLASVI
Cc1ccc(C(C)NC(=O)[C@@H](NC(=O)OC(C)C)C(C)C)cc1 (stereo partly shown) [Iprovalicarb]	xx (21-35% reduction in percent disease)
CNC(=O)/C(=N/OC)c1ccccc1COc1cc(C)ccc1C [Dimoxystrobin]	x (0-20% reduction in percent disease)
CCNc1nc(CC)c(C(=O)NC(C#N)c2cccs2)s1 (stereo not shown) [Ethaboxam, reference compound]	x (0-20% reduction in percent disease)
C[C@@]1(c2ccc(Oc3ccccc3)cc2)OC(=O)N(Nc2ccccc2)C1=O (racemic) [Famoxadone]	x (0-20% reduction in percent disease)

Same assay, conditions: fungicide with Formulation I at 100 ppm; Table 20

Compound	effect of Formulation I on the effectiveness of fungicides, PLASVI
Cc1c(Br)c2ccc(F)cc2n1S(=O)(=O)c1ncn(S(=O)(=O)N(C)C)n1 [Amisulbrom]	x (0-20% reduction in percent disease)
[Cl-].[Cu+2].[Cu+2].[OH-].[OH-].[OH-] [Copper oxychloride]	x (0-20% reduction in percent disease)
COCC(=O)N(c1c(C)cccc1C)[C@H](C)C(=O)OC [Mefenoxam]	x (0-20% reduction in percent disease)
COCC(=O)N(c1c(C)cccc1C)C(C)C(=O)OC (stereo not shown) [Metalaxyl]	x (0-20% reduction in percent disease)

System: Phytophthora infestans (PHYTIN)
Format: in vivo
Conditions: PHYTIN; fungicide with Formulation I at 100 ppm; Table 21

Compound	Reduction in percent disease, Formul. I
Cc1c(Br)c2ccc(F)cc2n1S(=O)(=O)c1ncn(S(=O)(=O)N(C)C)n1 [Amisulbrom]	x (0-20% reduction in percent disease)
CCCCCCCCCc1c(COC)nc2ncnn2c1N [Compound T]	x (0-20% reduction in percent disease)

Same assay, conditions: PHYTIN; fungicide with Formulation II at 100 ppm of attractant derivative; Table 22

Compound	Reduction in percent disease, Formul. II
CO/C=C(/C(=O)OC)c1ccccc1COc1cccc(C(F)(F)F)n1 [Picoxystrobin]	x (0-20% reduction in percent disease)
COCC(=O)N(c1c(C)cccc1C)[C@H](C)C(=O)OC [Mefenoxam]	xx (21-35% reduction in percent disease)

Same assay, conditions: PHYTIN; fungicide with Formulation II at 100 ppm; Table 21

Compound	Reduction in percent disease, Formul. II
Cc1c(Br)c2ccc(F)cc2n1S(=O)(=O)c1ncn(S(=O)(=O)N(C)C)n1 [Amisulbrom]	x (0-20% reduction in percent disease)
CCCCCCCCCc1c(COC)nc2ncnn2c1N [Compound T]	x (0-20% reduction in percent disease)

Same assay, conditions: aldehyde derivative 500 ppm with mancozeb; Table 16

Compound	Reduction in percent disease PHYTIN
condensation product of urea and 3,3- dimethylbutyraldehyde [Compound R]	xx (21-35% reduction in percent disease)
CCC(C)/C=N/NC(=O)c1cccc(C(=O)N/N=C/C(C)CC)c1 (stereo not shown) [Compound P]	x (0-20% reduction in percent disease)
condensation product of urea and 2- methylbutyraldehyde [Compound Q]	x (0-20% reduction in percent disease)

Same assay, conditions: fungicide with Formulation I at 100 ppm; Table 18

Compound	Reduction in percent disease PHYTIN
CO/C=C(/C(=O)OC)c1ccccc1Oc1cc(Oc2ccccc2C#N)ncn1 [Azoxystrobin]	xx (21-35% reduction in percent disease)
CO/C=C(/C(=O)OC)c1ccccc1COc1cccc(C(F)(F)F)n1 [Picoxystrobin]	x (0-20% reduction in percent disease)
COCC(=O)N(c1c(C)cccc1C)[C@H](C)C(=O)OC [Mefenoxam]	xxxx (>50% reduction in percent disease)
CCNC(=O)NC(=O)/C(C#N)=N/OC [Cymoxanil]	xx (21-35% reduction in percent disease)
CCCOC(=O)NCCCN(C)C [Propamocarb]	xx (21-35% reduction in percent disease)

Same assay, conditions: fungicide with Formulation I at 100 ppm; Table 19

Compound	Reduction in percent disease PHYTIN
Cc1ccc(C(C)NC(=O)[C@@H](NC(=O)OC(C)C)C(C)C)cc1 (stereo partly shown) [Iprovalicarb]	x (0-20% reduction in percent disease)
CNC(=O)/C(=N/OC)c1ccccc1COc1cc(C)ccc1C [Dimoxystrobin]	x (0-20% reduction in percent disease)
CCNc1nc(CC)c(C(=O)NC(C#N)c2cccs2)s1 (stereo not shown) [Ethaboxam, reference compound]	x (0-20% reduction in percent disease)
C[C@@]1(c2ccc(Oc3ccccc3)cc2)OC(=O)N(Nc2ccccc2)C1=O (racemic) [Famoxadone]	xx (21-35% reduction in percent disease)

Same assay, conditions: fungicide with Formulation I at 100 ppm; Table 20

Compound	effect of Formulation I on the effectiveness of fungicides, PHYTIN
Cc1c(Br)c2ccc(F)cc2n1S(=O)(=O)c1ncn(S(=O)(=O)N(C)C)n1 [Amisulbrom]	x (0-20% reduction in percent disease)
CO/C=C(/C(=O)OC)c1ccccc1Oc1cc(Oc2ccccc2C#N)ncn1 [Azoxystrobin]	xxx (36-50% reduction in percent disease)
[Cl-].[Cu+2].[Cu+2].[OH-].[OH-].[OH-] [Copper oxychloride]	x (0-20% reduction in percent disease)
COCC(=O)N(c1c(C)cccc1C)[C@H](C)C(=O)OC [Mefenoxam]	xx (21-35% reduction in percent disease)
O=C(NCc1ncc(C(F)(F)F)cc1Cl)c1c(Cl)cccc1Cl [Fluopicolide]	xx (21-35% reduction in percent disease)
COCC(=O)N(c1c(C)cccc1C)C(C)C(=O)OC (stereo not shown) [Metalaxyl]	xx (21-35% reduction in percent disease)

From patent US20090246293A1 (priority 2008, published 2009)
